Measured values: ChEMBL document CHEMBL3046822, “Synthesis, antiplatelet aggregation activity, and molecular modeling study of novel substituted-piperazine analogues” (2011)
Calls of active or inactive are those of the source.

How the values were obtained:
[1] = tested on: Platelet; test: Antiaggregating activity in Homo sapiens (human) platelet rich plasma assessed as inhibition of arachidonic acid-induced platelet aggregation at 1 uM incubated for 4 min prior to arachidonic acid-induction measured for 5.5 min by turbidometric analysis; assay type: functional, cell-free
[2] = tested on: Platelet; test: Antiaggregating activity in Homo sapiens (human) platelet rich plasma assessed as inhibition of ADP-induced platelet aggregation at 2.5 uM incubated for 4 min prior to ADP-induction measured for 5.5 min by turbidometric analysis; assay type: functional, cell-free
[3] = tested on: Platelet; test: Antiaggregating activity in Homo sapiens (human) platelet rich plasma assessed as inhibition of adrenaline-induced platelet aggregation at 1 uM incubated for 4 min prior to adrenaline-induction measured for 5.5 min by turbidometric analysis; assay type: functional, cell-free
[4] = tested on: Platelet; test: Antiaggregating activity in Homo sapiens (human) platelet rich plasma assessed as inhibition of collagen-induced platelet aggregation at 2.5 uM incubated for 4 min prior to collagen-induction measured for 5.5 min by turbidometric analysis; assay type: functional, cell-free
[5] = Antiaggregating activity in Homo sapiens (human) platelet rich plasma assessed as ristocetin-induced platelet aggregation at 1 uM incubated for 4 min prior to ristocetin-induction measured for 5.5 min by turbidometric analysis (reference value: 65 to 99%); assay type: functional
[6] = tested on: Platelet; test: Antiaggregating activity in Homo sapiens (human) platelet rich plasma assessed as inhibition of ADP-induced platelet aggregation at 1 uM incubated for 4 min prior to ADP-induction measured for 5.5 min by turbidometric analysis; assay type: functional, cell-free
[7] = tested on: Platelet; test: Antiaggregating activity in Homo sapiens (human) platelet rich plasma assessed as collagen-induced platelet aggregation at 0.25 uM incubated for 4 min prior to collagen-induction measured for 5.5 min by turbidometric analysis (reference value: 50 to 98%); assay type: functional
[8] = tested on: Platelet; test: Antiaggregating activity in Homo sapiens (human) platelet rich plasma assessed as inhibition of collagen-induced platelet aggregation at 1 uM incubated for 4 min prior to collagen-induction measured for 5.5 min by turbidometric analysis; assay type: functional, cell-free
[9] = tested on: Platelet; test: Antiaggregating activity in Homo sapiens (human) platelet rich plasma assessed as inhibition of adrenaline-induced platelet aggregation at 2.5 uM incubated for 4 min prior to adrenaline-induction measured for 5.5 min by turbidometric analysis; assay type: functional, cell-free
[10] = tested on: Platelet; test: Antiaggregating activity in Homo sapiens (human) platelet rich plasma assessed as inhibition of arachidonic acid-induced platelet aggregation at 2.5 uM incubated for 4 min prior to arachidonic acid-induction measured for 5.5 min by turbidometric analysis; assay type: functional, cell-free
[11] = Antiaggregating activity in Homo sapiens (human) platelet rich plasma assessed as ADP-induced platelet aggregation at 0.1 uM incubated for 4 min prior to ADP-induction measured for 5.5 min by turbidometric analysis (reference value: 54 to 88%); assay type: functional
[12] = tested on: Platelet; test: Antiaggregating activity in Homo sapiens (human) platelet rich plasma assessed as inhibition of arachidonic acid-induced platelet aggregation at 0.5 uM incubated for 4 min prior to arachidonic acid-induction measured for 5.5 min by turbidometric analysis; assay type: functional
[13] = tested on: Platelet; test: Antiaggregating activity in Homo sapiens (human) platelet rich plasma assessed as inhibition of adrenaline-induced platelet aggregation at 0.5 uM incubated for 4 min prior to adrenaline-induction measured for 5.5 min by turbidometric analysis; assay type: functional, cell-free
[14] = tested on: Platelet; test: Antiaggregating activity in Homo sapiens (human) platelet rich plasma assessed as inhibition of adrenaline-induced platelet aggregation at 0.1 uM incubated for 4 min prior to adrenaline-induction measured for 5.5 min by turbidometric analysis; assay type: functional, cell-free
[15] = tested on: Platelet; test: Antiaggregating activity in Homo sapiens (human) platelet rich plasma assessed as inhibition of adrenaline-induced platelet aggregation at 0.25 uM incubated for 4 min prior to adrenaline-induction measured for 5.5 min by turbidometric analysis; assay type: functional, cell-free
[16] = tested on: Platelet; test: Antiaggregating activity in Homo sapiens (human) platelet rich plasma assessed as inhibition of ADP-induced platelet aggregation at 0.25 uM incubated for 4 min prior to ADP-induction measured for 5.5 min by turbidometric analysis; assay type: functional, cell-free
[17] = tested on: Platelet; test: Antiaggregating activity in Homo sapiens (human) platelet rich plasma assessed as inhibition of adrenaline-induced platelet aggregation at 5 uM incubated for 4 min prior to adrenaline-induction measured for 5.5 min by turbidometric analysis; assay type: functional, cell-free
[18] = tested on: Platelet; test: Antiaggregating activity in Homo sapiens (human) platelet rich plasma assessed as inhibition of ristocetin-induced platelet aggregation at 5 uM incubated for 4 min prior to ristocetin-induction measured for 5.5 min by turbidometric analysis; assay type: functional, cell-free
[19] = Antiaggregating activity in Homo sapiens (human) platelet rich plasma assessed as ristocetin-induced platelet aggregation at 0.5 uM incubated for 4 min prior to ristocetin-induction measured for 5.5 min by turbidometric analysis (reference value: 65 to 99%); assay type: functional
[20] = tested on: Platelet; test: Antiaggregating activity in Homo sapiens (human) platelet rich plasma assessed as inhibition of ADP-induced platelet aggregation at 5 uM incubated for 4 min prior to ADP-induction measured for 5.5 min by turbidometric analysis; assay type: functional, cell-free
[21] = tested on: Platelet; test: Antiaggregating activity in Homo sapiens (human) platelet rich plasma assessed as inhibition of ADP-induced platelet aggregation at 0.5 uM incubated for 4 min prior to ADP-induction measured for 5.5 min by turbidometric analysis; assay type: functional, cell-free
[22] = tested on: Platelet; test: Antiaggregating activity in Homo sapiens (human) platelet rich plasma assessed as inhibition of collagen-induced platelet aggregation at 0.25 uM incubated for 4 min prior to collagen-induction measured for 5.5 min by turbidometric analysis; assay type: functional
[23] = tested on: Platelet; test: Antiaggregating activity in Homo sapiens (human) platelet rich plasma assessed as inhibition of collagen-induced platelet aggregation at 5 uM incubated for 4 min prior to collagen-induction measured for 5.5 min by turbidometric analysis; assay type: functional, cell-free
[24] = tested on: Platelet; test: Antiaggregating activity in Homo sapiens (human) platelet rich plasma assessed as inhibition of collagen-induced platelet aggregation at 0.5 uM incubated for 4 min prior to collagen-induction measured for 5.5 min by turbidometric analysis; assay type: functional, cell-free
[25] = Antiaggregating activity in Homo sapiens (human) platelet rich plasma assessed as collagen-induced platelet aggregation at 0.1 uM incubated for 4 min prior to collagen-induction measured for 5.5 min by turbidometric analysis (reference value: 50 to 98%); assay type: functional
[26] = Antiaggregating activity in Homo sapiens (human) platelet rich plasma assessed as ristocetin-induced platelet aggregation at 0.1 uM incubated for 4 min prior to ristocetin-induction measured for 5.5 min by turbidometric analysis (reference value: 65 to 99%); assay type: functional
[27] = Antiaggregating activity in Homo sapiens (human) platelet rich plasma assessed as ristocetin-induced platelet aggregation at 0.25 uM incubated for 4 min prior to ristocetin-induction measured for 5.5 min by turbidometric analysis (reference value: 65 to 99%); assay type: functional
[28] = Antiaggregating activity in Homo sapiens (human) platelet rich plasma assessed as arachidonic acid-induced platelet aggregation at 0.1 uM incubated for 4 min prior to arachidonic acid-induction measured for 5.5 min by turbidometric analysis (reference value: 55 to 100%); assay type: functional
[29] = tested on: Platelet; test: Antiaggregating activity in Homo sapiens (human) platelet rich plasma assessed as inhibition of arachidonic acid-induced platelet aggregation at 0.25 uM incubated for 4 min prior to arachidonic acid-induction measured for 5.5 min by turbidometric analysis; assay type: functional, cell-free
[30] = tested on: Platelet; test: Antiaggregating activity in Homo sapiens (human) platelet rich plasma assessed as inhibition of arachidonic acid-induced platelet aggregation at 5 uM incubated for 4 min prior to arachidonic acid-induction measured for 5.5 min by turbidometric analysis; assay type: functional, cell-free
[31] = Antiaggregating activity in Homo sapiens (human) platelet rich plasma assessed as collagen-induced platelet aggregation at 0.5 uM incubated for 4 min prior to collagen-induction measured for 5.5 min by turbidometric analysis (reference value: 50 to 98%); assay type: functional
[32] = tested on: Platelet; test: Antiaggregating activity in Homo sapiens (human) platelet rich plasma assessed as inhibition of adrenaline-induced platelet aggregation at 2 uM incubated for 4 min prior to adrenaline-induction measured for 5.5 min by turbidometric analysis; assay type: functional, cell-free
[33] = Antiaggregating activity in Homo sapiens (human) platelet rich plasma assessed as ristocetin-induced platelet aggregation at 2 uM incubated for 4 min prior to ristocetin-induction measured for 5.5 min by turbidometric analysis (reference value: 65 to 99%); assay type: functional
[34] = Antiaggregating activity in Homo sapiens (human) platelet rich plasma assessed as ADP-induced platelet aggregation at 0.5 uM incubated for 4 min prior to ADP-induction measured for 5.5 min by turbidometric analysis (reference value: 54 to 88%); assay type: functional
[35] = Antiaggregating activity in Homo sapiens (human) platelet rich plasma assessed as disaggregation of ADP-induced platelet aggregation at 1 uM incubated for 4 min prior to ADP-induction measured for 5.5 min by turbidometric analysis relative to control; assay type: functional
[36] = tested on: Platelet; test: Antiaggregating activity in Homo sapiens (human) platelet rich plasma assessed as inhibition of ADP-induced platelet aggregation at 2 uM incubated for 4 min prior to ADP-induction measured for 5.5 min by turbidometric analysis; assay type: functional, cell-free
[37] = tested on: Platelet; test: Antiaggregating activity in Homo sapiens (human) platelet rich plasma assessed as inhibition of collagen-induced platelet aggregation at 2 uM incubated for 4 min prior to collagen-induction measured for 5.5 min by turbidometric analysis; assay type: functional, cell-free
[38] = Antiaggregating activity in Homo sapiens (human) platelet rich plasma assessed as arachidonic acid-induced platelet aggregation at 0.5 uM incubated for 4 min prior to arachidonic acid-induction measured for 5.5 min by turbidometric analysis (reference value: 55 to 100%); assay type: functional
[39] = tested on: Platelet; test: Antiaggregating activity in Homo sapiens (human) platelet rich plasma assessed as inhibition of arachidonic acid-induced platelet aggregation at 2 uM incubated for 4 min prior to arachidonic acid-induction measured for 5.5 min by turbidometric analysis; assay type: functional, cell-free
[40] = Antiaggregating activity in Homo sapiens (human) platelet rich plasma assessed as arachidonic acid-induced platelet aggregation at 1 uM incubated for 4 min prior to arachidonic acid-induction measured for 5.5 min by turbidometric analysis (reference value: 55 to 100%); assay type: functional
[41] = Antiaggregating activity in Homo sapiens (human) platelet rich plasma assessed as disaggregation of ADP-induced platelet aggregation at 0.25 uM incubated for 4 min prior to ADP-induction measured for 5.5 min by turbidometric analysis relative to control; assay type: functional

Cl.Cl.O=C(C1CCCN(Cc2ccccc2F)C1)N1CCN(C(=O)C2CCCN(Cc3ccccc3F)C2)CC1 (stereo not given)
64%: Activity [5]
active: inhibition [1] | inhibition [2] | inhibition [3] | inhibition [4] | inhibition [6] | inhibition [7] | inhibition [8] | inhibition [9] | inhibition [10]

Cl.O=C(C1CCCN(Cc2ccccc2)C1)N1CCN(c2ccccc2Cl)CC1 (stereo not given)
86%: Activity [11]
22%: Activity [5]
90%: Activity [26]
active: inhibition [12] | inhibition [1] | inhibition [13] | inhibition [3] | inhibition [14] | inhibition [15] | inhibition [16] | inhibition [17] | inhibition [18] | inhibition [20] | inhibition [21] | inhibition [6] | inhibition [22] | inhibition [23] | inhibition [24] | inhibition [8] | inhibition [29] | inhibition [30]
30%: Activity [27]
23%: Activity [28]
100%: Activity [25]
26%: Activity [19]

Cl.Cl.O=C(C1CCCN(Cc2ccc(CN3CCCC(C(=O)N4CCN(c5ncccn5)CC4)C3)cc2)C1)N1CCN(c2ncccn2)CC1 (stereo not given)
active: inhibition [12] | inhibition [1] | inhibition [13] | inhibition [3] | inhibition [21] | inhibition [6] | inhibition [8]
58%: Activity [5]
23%: Activity [31]
92%: Activity [19]

O=C(c1ccc[n+](Cc2ccccc2F)c1)N1CCN(c2ccccc2Cl)CC1.[Cl-]
55%: Activity [35]
71%: Activity [34] | Activity [38]
active: inhibition [13] | inhibition [3] | inhibition [32] | inhibition [17] | inhibition [18] | inhibition [36] | inhibition [20] | inhibition [37] | inhibition [23] | inhibition [8] | inhibition [39] | inhibition [30]
85%: Activity [5]
80%: Activity [40]
90%: Activity [31]
66%: Activity [33]
89%: Activity [19]

Cl.O=C(c1ccc(Br)cc1)N1CCCC(C(=O)N2CCN(c3ccccc3Cl)CC2)C1 (stereo not given)
81%: Activity [27]
75%: Activity [19]
47%: Activity [41]
active: inhibition [12] | inhibition [2] | inhibition [13] | inhibition [15] | inhibition [4] | inhibition [21] | inhibition [22] | inhibition [7] | inhibition [24] | inhibition [9] | inhibition [29] | inhibition [10]

Cl.Cl.O=C(C1CCCN(Cc2ccccc2)C1)N1CCN(C(=O)C2CCCN(Cc3ccccc3)C2)CC1 (stereo not given)
9%: Activity [33]
active: inhibition [32] | inhibition [36] | inhibition [37] | inhibition [39]
